Data from ChEMBL document CHEMBL4339219, “Drug Design and Synthesis of First in Class PDZ1 Targeting NHERF1 Inhibitors as Anticancer Agents” (ACS Med Chem Lett, 2019).

Key:
DLD-1 [1] = experiment: cells; settings: Homo sapiens, DLD-1, 72 h
SW480 [2] = experiment: cells; settings: Homo sapiens, SW480, 72 h
SW480 [3] = experiment: cells; settings: Homo sapiens, SW480, 72 h; remark: listed apart in the source
SW480 [4] = experiment: cells; settings: Homo sapiens, SW480, 72 h; remark: listed apart in the source
SW-620 [5] = experiment: cells; settings: Homo sapiens, SW-620, 72 h
DLD-1 [6] = experiment: cells; settings: Homo sapiens, DLD-1, 72 h; remark: listed apart in the source
DLD-1 [7] = experiment: cells; settings: Homo sapiens, DLD-1, 72 h; remark: listed apart in the source
HEK-293T = experiment: Effect on FOP reporter expression in LiCl-induced HEK293T cells incubated for 24 hrs by luciferase reporter gene assay; format: ADME, cell-based; settings: human
SW-620 [8] = experiment: cells; settings: Homo sapiens, SW-620, 72 h; remark: listed apart in the source

| IC50 (DLD-1 [1]) | IC50 (SW480 [2]) | IC50 (SW480 [3]) | IC50 (SW480 [4]) | IC50 (SW-620 [5]) | IC50 (DLD-1 [6]) | IC50 (DLD-1 [7]) | IC50 (SW-620 [8]) | SMILES | Activity (HEK-293T) |
| --- | --- | --- | --- | --- | --- | --- | --- | --- | --- |
| 28 µM | 10 µM |  |  |  |  |  |  | Cc1cc([N+](=O)[O-])ccc1NS(=O)(=O)c1cc(Cl)ccc1Cl |  |
|  |  | 3 µM | 0.3 µM | 22 µM | 0.8 µM | 0.1 µM |  | O=C(Nc1ccccc1CO)c1c[nH]c2ccc(Cl)cc12 |  |
|  |  |  |  |  |  |  |  | CCOC(=O)c1ccc(NS(=O)(=O)c2ccc(Br)cc2)cc1 | Non-Toxic |
|  |  | 0.9 µM | 0.1 µM | 18 µM | 0.5 µM | 0.1 µM | 0.5 µM | O=C(Nc1ccc(CO)cc1)c1[nH]c2ccc(Cl)cc2c1Cc1ccccc1 |  |
